# Data reported in ChEMBL document CHEMBL5291721, “A preclinical secondary pharmacology resource illuminates target-adverse drug reaction associations of marketed drugs” (Nat Commun, 2023).
# Key:
# [1] = biological target: Gamma-aminobutyric acid type B receptor subunit 1 (Homo sapiens, UniProt Q9UBS5)
# Estrogen receptor beta = Estrogen receptor beta (Homo sapiens, UniProt Q92731)
# [2] = biological target: 5-hydroxytryptamine receptor 7 (Homo sapiens, UniProt P34969)
# B1 bradykinin receptor = biological target: T1, B1 bradykinin receptor (Homo sapiens, UniProt P46663)
# T1 sequence (P46663 whole entry): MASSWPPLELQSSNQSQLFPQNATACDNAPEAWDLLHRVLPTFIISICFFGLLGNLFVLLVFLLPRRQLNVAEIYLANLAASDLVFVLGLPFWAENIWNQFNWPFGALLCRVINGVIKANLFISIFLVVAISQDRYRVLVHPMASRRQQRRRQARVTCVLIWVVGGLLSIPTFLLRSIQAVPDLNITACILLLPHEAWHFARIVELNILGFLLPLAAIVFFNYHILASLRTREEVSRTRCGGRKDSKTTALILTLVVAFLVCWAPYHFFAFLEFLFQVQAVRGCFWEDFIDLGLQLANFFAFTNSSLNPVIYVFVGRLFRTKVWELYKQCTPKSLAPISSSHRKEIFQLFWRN
# [3] = biological target: Neurotensin receptor type 1 (Homo sapiens, UniProt P30989)
# Chain of Neurotensin receptor type 1 (P30989 whole entry): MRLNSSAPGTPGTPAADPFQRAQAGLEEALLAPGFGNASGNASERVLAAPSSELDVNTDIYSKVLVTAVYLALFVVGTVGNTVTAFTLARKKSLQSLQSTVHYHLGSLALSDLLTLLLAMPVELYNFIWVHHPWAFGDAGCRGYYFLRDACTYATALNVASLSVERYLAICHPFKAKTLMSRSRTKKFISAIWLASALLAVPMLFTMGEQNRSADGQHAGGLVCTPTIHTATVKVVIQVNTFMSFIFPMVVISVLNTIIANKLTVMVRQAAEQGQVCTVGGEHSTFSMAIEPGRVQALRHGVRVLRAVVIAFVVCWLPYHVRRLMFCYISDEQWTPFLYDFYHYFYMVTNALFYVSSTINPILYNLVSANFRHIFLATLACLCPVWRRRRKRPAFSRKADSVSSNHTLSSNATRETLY
# [4] = biological target: T2, Peroxisome proliferator-activated receptor gamma (Homo sapiens, UniProt P37231); type: functional
# T2 sequence (P37231 whole entry): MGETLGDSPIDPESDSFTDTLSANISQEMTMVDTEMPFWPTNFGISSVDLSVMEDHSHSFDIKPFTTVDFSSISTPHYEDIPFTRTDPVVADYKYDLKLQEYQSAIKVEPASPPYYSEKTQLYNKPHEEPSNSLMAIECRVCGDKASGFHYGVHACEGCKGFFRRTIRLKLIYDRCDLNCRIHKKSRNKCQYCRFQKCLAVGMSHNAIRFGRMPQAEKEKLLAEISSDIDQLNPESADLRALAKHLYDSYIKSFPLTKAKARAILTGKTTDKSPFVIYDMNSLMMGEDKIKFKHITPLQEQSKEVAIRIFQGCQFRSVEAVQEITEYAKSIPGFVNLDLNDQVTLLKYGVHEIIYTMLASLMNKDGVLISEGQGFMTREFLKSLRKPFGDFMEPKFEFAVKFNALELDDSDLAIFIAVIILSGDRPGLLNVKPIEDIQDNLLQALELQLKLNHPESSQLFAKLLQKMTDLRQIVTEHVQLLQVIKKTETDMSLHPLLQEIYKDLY
# [5] = biological target: Voltage-dependent L-type calcium channel subunit alpha-1C (Homo sapiens, UniProt Q13936); type: functional, cell-based
# Chain of Voltage-dependent L-type calcium channel subunit alpha-1C (Q13936 whole entry): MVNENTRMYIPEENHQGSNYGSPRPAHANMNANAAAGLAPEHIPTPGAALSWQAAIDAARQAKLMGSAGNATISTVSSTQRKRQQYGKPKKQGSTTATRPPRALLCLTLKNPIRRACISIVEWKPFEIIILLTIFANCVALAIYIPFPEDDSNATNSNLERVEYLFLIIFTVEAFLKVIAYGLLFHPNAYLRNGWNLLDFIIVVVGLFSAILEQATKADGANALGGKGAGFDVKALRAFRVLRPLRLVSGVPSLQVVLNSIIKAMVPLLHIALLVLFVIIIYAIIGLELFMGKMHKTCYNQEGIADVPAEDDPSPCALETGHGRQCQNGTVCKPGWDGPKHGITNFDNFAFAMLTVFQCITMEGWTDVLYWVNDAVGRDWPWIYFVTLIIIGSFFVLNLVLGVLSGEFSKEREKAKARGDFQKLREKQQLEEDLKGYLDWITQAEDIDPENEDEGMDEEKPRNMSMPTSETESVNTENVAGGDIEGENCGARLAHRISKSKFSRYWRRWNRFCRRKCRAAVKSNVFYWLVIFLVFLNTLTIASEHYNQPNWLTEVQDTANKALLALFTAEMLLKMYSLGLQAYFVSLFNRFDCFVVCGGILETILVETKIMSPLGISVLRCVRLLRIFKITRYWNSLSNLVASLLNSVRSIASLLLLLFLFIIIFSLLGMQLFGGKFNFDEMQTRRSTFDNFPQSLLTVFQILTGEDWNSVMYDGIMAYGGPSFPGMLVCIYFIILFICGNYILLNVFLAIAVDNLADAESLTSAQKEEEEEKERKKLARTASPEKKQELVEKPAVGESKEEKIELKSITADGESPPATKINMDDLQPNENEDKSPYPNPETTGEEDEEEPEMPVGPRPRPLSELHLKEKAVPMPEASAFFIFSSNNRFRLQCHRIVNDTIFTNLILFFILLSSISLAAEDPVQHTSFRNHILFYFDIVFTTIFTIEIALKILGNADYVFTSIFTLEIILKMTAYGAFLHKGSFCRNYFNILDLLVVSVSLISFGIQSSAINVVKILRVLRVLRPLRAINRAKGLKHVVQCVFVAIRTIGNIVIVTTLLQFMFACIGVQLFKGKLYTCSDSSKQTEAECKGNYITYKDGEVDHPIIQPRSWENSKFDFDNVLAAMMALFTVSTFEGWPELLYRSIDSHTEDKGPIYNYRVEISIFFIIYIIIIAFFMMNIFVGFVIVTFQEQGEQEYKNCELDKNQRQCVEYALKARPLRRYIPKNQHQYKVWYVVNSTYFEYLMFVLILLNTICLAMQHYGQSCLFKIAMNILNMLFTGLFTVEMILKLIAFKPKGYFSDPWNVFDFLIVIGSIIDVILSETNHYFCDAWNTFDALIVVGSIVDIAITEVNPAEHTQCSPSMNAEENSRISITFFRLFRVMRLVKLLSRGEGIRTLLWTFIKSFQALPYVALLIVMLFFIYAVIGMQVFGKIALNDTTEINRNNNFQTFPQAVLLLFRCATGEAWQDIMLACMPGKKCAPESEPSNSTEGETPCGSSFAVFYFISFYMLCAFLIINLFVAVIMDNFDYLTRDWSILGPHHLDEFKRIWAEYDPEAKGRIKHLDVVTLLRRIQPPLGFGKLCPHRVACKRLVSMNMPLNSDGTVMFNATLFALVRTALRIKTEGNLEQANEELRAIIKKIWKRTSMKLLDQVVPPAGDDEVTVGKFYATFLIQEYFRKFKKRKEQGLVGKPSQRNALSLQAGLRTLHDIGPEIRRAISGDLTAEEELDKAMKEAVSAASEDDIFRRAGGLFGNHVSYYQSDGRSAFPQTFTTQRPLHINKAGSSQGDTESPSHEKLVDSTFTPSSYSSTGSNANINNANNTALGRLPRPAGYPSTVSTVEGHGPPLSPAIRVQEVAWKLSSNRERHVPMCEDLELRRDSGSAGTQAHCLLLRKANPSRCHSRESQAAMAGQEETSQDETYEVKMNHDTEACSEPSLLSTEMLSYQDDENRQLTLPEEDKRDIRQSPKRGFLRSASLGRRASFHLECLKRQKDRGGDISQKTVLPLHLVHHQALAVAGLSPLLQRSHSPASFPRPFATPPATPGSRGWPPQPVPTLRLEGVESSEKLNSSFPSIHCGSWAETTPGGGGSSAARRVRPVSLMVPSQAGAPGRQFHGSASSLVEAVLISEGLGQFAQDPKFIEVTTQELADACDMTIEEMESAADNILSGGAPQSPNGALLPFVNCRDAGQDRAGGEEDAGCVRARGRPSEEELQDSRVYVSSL
# Androgen receptor = biological target: T3, Androgen receptor (Rattus norvegicus, UniProt P15207)
# T3 sequence (P15207 whole entry): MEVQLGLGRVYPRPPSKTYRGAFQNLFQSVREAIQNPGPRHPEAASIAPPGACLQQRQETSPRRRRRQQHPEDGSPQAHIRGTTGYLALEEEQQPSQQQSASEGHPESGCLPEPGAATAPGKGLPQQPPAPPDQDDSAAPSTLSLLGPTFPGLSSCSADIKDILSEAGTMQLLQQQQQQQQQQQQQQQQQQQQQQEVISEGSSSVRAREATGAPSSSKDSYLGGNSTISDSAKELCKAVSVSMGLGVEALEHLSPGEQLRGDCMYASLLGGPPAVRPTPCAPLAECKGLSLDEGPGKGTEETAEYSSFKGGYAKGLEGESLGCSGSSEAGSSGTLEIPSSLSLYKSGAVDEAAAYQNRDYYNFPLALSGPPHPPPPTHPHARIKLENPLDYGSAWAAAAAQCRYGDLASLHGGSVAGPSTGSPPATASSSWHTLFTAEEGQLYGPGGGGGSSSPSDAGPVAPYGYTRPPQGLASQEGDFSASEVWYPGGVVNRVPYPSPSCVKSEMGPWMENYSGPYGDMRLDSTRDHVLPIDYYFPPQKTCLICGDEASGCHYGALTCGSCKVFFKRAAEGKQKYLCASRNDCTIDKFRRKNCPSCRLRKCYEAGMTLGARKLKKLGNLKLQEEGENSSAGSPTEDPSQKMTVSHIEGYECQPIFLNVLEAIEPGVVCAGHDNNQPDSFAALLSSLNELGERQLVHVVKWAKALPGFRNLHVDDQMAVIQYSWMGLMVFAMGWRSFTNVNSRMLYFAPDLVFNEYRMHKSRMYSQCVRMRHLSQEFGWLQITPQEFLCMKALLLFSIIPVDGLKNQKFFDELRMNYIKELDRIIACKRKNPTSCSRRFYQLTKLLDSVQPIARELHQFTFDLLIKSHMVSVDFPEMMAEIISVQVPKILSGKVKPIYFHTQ
# Histamine H1 receptor [6] = biological target: T4, Histamine H1 receptor (Homo sapiens, UniProt P35367); type: functional, cell-based
# T4 sequence (P35367 whole entry): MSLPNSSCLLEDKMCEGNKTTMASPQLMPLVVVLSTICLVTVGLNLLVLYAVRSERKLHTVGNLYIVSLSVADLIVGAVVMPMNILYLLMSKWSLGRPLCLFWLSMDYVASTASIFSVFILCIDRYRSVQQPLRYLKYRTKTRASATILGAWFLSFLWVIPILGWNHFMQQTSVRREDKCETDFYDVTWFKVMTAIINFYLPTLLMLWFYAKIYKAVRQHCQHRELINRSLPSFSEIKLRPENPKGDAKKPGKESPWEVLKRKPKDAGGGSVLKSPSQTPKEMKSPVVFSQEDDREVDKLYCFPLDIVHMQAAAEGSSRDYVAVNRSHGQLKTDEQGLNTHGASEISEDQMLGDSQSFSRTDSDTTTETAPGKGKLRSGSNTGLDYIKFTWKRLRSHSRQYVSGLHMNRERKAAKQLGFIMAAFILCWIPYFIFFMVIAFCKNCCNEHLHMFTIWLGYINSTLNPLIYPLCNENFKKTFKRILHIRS
# Histamine H1 receptor [7] = biological target: T4, Histamine H1 receptor; type: functional, cell-based; remark: listed apart in the source
# [8] = biological target: T5, Muscarinic acetylcholine receptor M5 (Homo sapiens, UniProt P08912)
# T5 sequence (P08912 whole entry): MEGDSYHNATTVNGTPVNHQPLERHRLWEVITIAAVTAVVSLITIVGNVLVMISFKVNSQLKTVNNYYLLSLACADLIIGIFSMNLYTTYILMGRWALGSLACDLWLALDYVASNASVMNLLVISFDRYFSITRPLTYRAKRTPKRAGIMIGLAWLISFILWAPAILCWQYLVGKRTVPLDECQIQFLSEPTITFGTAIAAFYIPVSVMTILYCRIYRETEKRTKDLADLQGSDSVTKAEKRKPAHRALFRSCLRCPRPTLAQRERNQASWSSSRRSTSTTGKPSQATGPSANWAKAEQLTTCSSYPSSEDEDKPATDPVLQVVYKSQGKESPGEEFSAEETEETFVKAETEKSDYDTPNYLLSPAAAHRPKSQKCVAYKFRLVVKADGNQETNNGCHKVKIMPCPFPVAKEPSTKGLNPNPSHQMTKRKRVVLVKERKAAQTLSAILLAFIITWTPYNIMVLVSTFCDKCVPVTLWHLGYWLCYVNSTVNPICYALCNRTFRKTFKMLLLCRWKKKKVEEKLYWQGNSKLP
# D(1A) dopamine receptor = D(1A) dopamine receptor (Homo sapiens, UniProt P21728); type: functional, cell-based
# Chain of D(1A) dopamine receptor (P21728 whole entry): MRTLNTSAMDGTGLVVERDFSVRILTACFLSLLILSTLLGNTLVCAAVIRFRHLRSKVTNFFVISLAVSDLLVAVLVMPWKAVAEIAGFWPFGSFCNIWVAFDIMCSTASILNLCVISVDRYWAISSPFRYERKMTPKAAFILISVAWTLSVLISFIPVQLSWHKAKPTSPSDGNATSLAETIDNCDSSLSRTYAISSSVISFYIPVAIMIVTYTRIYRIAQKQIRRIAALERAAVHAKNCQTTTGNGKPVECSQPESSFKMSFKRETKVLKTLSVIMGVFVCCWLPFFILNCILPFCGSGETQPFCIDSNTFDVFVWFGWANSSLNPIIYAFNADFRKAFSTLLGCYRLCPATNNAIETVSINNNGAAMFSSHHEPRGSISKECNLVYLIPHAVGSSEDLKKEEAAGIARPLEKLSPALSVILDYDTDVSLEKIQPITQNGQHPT
# Also: assay procedure not described here.
# Chain of Estrogen receptor beta (Q92731 whole entry): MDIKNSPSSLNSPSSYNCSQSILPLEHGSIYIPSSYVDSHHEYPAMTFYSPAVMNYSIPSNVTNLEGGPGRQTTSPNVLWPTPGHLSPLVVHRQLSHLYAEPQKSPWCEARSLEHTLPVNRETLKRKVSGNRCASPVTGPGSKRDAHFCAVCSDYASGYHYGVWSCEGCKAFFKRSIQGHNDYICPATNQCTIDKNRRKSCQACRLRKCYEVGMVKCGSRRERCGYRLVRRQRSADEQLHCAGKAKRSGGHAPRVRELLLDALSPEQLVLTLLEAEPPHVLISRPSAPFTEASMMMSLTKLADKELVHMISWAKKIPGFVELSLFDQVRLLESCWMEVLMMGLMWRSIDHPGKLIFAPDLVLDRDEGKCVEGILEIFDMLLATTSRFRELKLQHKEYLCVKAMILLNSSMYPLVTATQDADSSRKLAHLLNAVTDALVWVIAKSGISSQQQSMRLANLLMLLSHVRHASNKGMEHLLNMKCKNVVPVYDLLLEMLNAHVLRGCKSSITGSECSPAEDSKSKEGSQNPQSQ
# Chain of 5-hydroxytryptamine receptor 7 (P34969 whole entry): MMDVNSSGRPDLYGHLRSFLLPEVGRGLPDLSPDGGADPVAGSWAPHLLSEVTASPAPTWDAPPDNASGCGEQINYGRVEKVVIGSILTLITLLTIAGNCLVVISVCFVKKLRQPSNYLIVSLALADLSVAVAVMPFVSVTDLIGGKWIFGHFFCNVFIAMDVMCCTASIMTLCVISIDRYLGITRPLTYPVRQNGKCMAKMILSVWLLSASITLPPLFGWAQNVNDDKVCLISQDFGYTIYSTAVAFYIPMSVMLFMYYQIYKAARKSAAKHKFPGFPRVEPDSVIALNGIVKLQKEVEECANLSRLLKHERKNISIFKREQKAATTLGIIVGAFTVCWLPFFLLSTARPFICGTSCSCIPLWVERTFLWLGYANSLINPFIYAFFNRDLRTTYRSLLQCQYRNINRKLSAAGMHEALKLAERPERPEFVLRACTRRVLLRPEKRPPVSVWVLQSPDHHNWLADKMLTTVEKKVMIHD
compound,measurement,setting,value
CNS(=O)(=O)Cc1ccc2[nH]cc(CCN(C)C)c2c1,AC50,[1],> 10 µM
same,AC50,Estrogen receptor beta,> 30 µM
same,AC50,[2],4.67 µM
same,AC50,B1 bradykinin receptor,> 30 µM
same,AC50,[3],> 30 µM
CC(=O)O[C@H]1CC[C@@]2(C)C(=CC[C@@H]3[C@@H]2CC[C@]2(C)C(c4cccnc4)=CC[C@@H]32)C1 [ABIRATERONE ACETATE],AC50,[4],> 30 µM
same,AC50,[5],> 30 µM
NCC[C@H](O)C(=O)N[C@@H]1C[C@H](N)[C@@H](O[C@H]2O[C@H](CN)[C@@H](O)[C@H](O)[C@H]2O)[C@H](O)[C@H]1O[C@H]1O[C@H](CO)[C@@H](O)[C@H](N)[C@H]1O [AMIKACIN],AC50,Androgen receptor,> 10 µM
NCC(=O)CCC(=O)O [AMINOLEVULINIC ACID],AC50,Histamine H1 receptor [6],> 30 µM
same,AC50,Histamine H1 receptor [7],> 30 µM
COC(=O)C1=C(C)NC(C)=C(C(=O)OC2CCCN(Cc3ccccc3)C2)C1c1cccc([N+](=O)[O-])c1 (stereo not drawn) [BENIDIPINE],AC50,[5],1.9 µM
C=CCC1(CC(C)C)C(=O)NC(=O)NC1=O [BUTALBITAL],AC50,Androgen receptor,> 10 µM
CO/N=C(\C(=O)N[C@@H]1C(=O)N2C(C(=O)O)=C(CSc3nnnn3C)CS[C@H]12)c1csc(N)n1 [CEFMENOXIME],AC50,[4],> 30 µM
O=C(O)C1=C(CSc2nnnn2CS(=O)(=O)O)CS[C@@H]2[C@H](NC(=O)[C@H](O)c3ccccc3)C(=O)N12 [CEFONICID],AC50,Androgen receptor,> 30 µM
CCN1CCN(C(=O)N[C@@H](C(=O)N[C@@H]2C(=O)N3C(C(=O)O)=C(CSc4nnnn4C)CS[C@H]23)c2ccc(O)cc2)C(=O)C1=O [CEFOPERAZONE],AC50,[4],> 30 µM
COc1ccc2c3c1O[C@H]1[C@@H](O)C=C[C@H]4[C@@H](C2)N(C)CC[C@@]341 [CODEINE],AC50,[1],> 10 µM
same,AC50,[8],> 10 µM
same,AC50,[2],> 10 µM
same,AC50,B1 bradykinin receptor,> 30 µM
same,AC50,[3],> 30 µM
CCCCc1ncc(/C=C(\Cc2cccs2)C(=O)O)n1Cc1ccc(C(=O)O)cc1 [EPROSARTAN],AC50,Histamine H1 receptor [6],> 30 µM
same,AC50,[1],> 10 µM
same,AC50,[8],> 10 µM
same,AC50,[2],> 10 µM
same,AC50,B1 bradykinin receptor,> 30 µM
same,AC50,Histamine H1 receptor [7],> 30 µM
same,AC50,[3],> 30 µM
CCc1c(Cl)c(O)c(Cl)c(O)c1C(=O)O[C@H]1[C@H](O)[C@H](OC)[C@H](OC/C2=C\C=C\C[C@H](O)/C(C)=C/[C@H](CC)[C@@H](O[C@@H]3OC(C)(C)[C@@H](OC(=O)C(C)C)[C@H](O)[C@@H]3O)/C(C)=C/C(C)=C/C[C@@H]([C@@H](C)O)OC2=O)O[C@@H]1C [FIDAXOMICIN],AC50,Estrogen receptor beta,> 30 µM
same,AC50,B1 bradykinin receptor,> 30 µM
same,AC50,Androgen receptor,25 µM
same,AC50,[3],> 30 µM
CC(C)Cn1cnc2c(N)nc3ccccc3c21 [IMIQUIMOD],AC50,Androgen receptor,> 10 µM
CC(C)(C)c1cc(C(C)(C)C)c(NC(=O)c2c[nH]c3ccccc3c2=O)cc1O [IVACAFTOR],AC50,Androgen receptor,> 30 µM
CC(C)OC(=O)CCC/C=C\C[C@@H]1[C@@H](CC[C@@H](O)CCc2ccccc2)[C@H](O)C[C@@H]1O [LATANOPROST],AC50,Histamine H1 receptor [6],> 30 µM
same,AC50,Histamine H1 receptor [7],> 30 µM
same,AC50,[4],> 30 µM
COC(=O)C1=C(C)NC(C)=C(C(=O)OC(C)(C)CN(C)CCC(c2ccccc2)c2ccccc2)C1c1cccc([N+](=O)[O-])c1 (stereo not drawn) [LERCANIDIPINE],AC50,Androgen receptor,> 30 µM
same,AC50,[5],> 50 µM
CCC1(CC)C(=O)NCC(C)C1=O (stereo not drawn) [METHYPRYLON],AC50,Histamine H1 receptor [6],> 30 µM
same,AC50,Histamine H1 receptor [7],> 30 µM
same,AC50,[4],> 30 µM
CCCc1nc(C(C)(C)O)c(C(=O)OCc2oc(=O)oc2C)n1Cc1ccc(-c2ccccc2-c2nnn[nH]2)cc1 [OLMESARTAN MEDOXOMIL],AC50,Estrogen receptor beta,> 30 µM
same,AC50,[2],> 10 µM
same,AC50,B1 bradykinin receptor,> 50 µM
same,AC50,[3],> 30 µM
N#Cc1ccc([C@H]2CCc3cncn32)c(F)c1 [OSILODROSTAT],AC50,[1],> 10 µM
same,AC50,[8],> 10 µM
same,AC50,[2],> 10 µM
same,AC50,B1 bradykinin receptor,> 10 µM
same,AC50,[3],> 10 µM
CC[C@@H]1C(=O)OC[C@@H]1Cc1cncn1C [PILOCARPINE],AC50,Histamine H1 receptor [6],> 30 µM
same,AC50,Histamine H1 receptor [7],> 30 µM
O=C(O)C[C@H](O)C[C@H](O)/C=C/c1c(C2CC2)nc2ccccc2c1-c1ccc(F)cc1 [PITAVASTATIN],AC50,Androgen receptor,> 10 µM
Clc1ccc(CCCOCCCN2CCCCC2)cc1 [PITOLISANT],AC50,[5],10.4 µM
CN1CCC(=C2c3ccccc3CCc3sccc32)CC1 [PIZOTYLINE],AC50,Histamine H1 receptor [6],> 30 µM
same,AC50,D(1A) dopamine receptor,0.65 µM
same,AC50,Histamine H1 receptor [7],0.0681 µM
CCCN(CCC)C(=O)C(CCC(=O)O)NC(=O)c1ccccc1 (stereo not drawn) [PROGLUMIDE],AC50,B1 bradykinin receptor,> 30 µM
same,AC50,[3],> 30 µM
COC(=O)[C@H]1[C@H]2C[C@@H]3c4[nH]c5cc(OC)ccc5c4CCN3C[C@H]2C[C@@H](OC(=O)/C=C/c2cc(OC)c(OC)c(OC)c2)[C@@H]1OC [RESCINNAMINE],AC50,Androgen receptor,> 10 µM
CN1C(=O)C(O)N=C(c2ccccc2)c2cc(Cl)ccc21 (stereo not drawn) [TEMAZEPAM],AC50,Estrogen receptor beta,> 30 µM
same,AC50,B1 bradykinin receptor,> 30 µM
same,AC50,[3],> 30 µM
CCN(CC)C(=O)N[C@H]1C[C@@H]2c3cccc4[nH]cc(c34)C[C@H]2N(C)C1 [TERGURIDE],AC50,Histamine H1 receptor [6],> 30 µM
same,AC50,Histamine H1 receptor [7],7.49 µM
same,AC50,[4],> 30 µM
C/C(O)=C(\C#N)C(=O)Nc1ccc(C(F)(F)F)cc1 [TERIFLUNOMIDE],AC50,[4],25 µM
CC(CC(c1ccccc1)c1ccccc1)NC(C)(C)C (stereo not drawn) [TERODILINE],AC50,[5],> 50 µM
CN1CCN(CC/C=C2/c3ccccc3Sc3ccc(S(=O)(=O)N(C)C)cc32)CC1 [THIOTHIXENE],AC50,[1],> 10 µM
same,AC50,D(1A) dopamine receptor,0.98 µM
same,AC50,Estrogen receptor beta,> 30 µM
same,AC50,[2],0.254 µM
same,AC50,B1 bradykinin receptor,> 30 µM
same,AC50,Androgen receptor,> 30 µM
same,AC50,[3],> 30 µM
C=CCN1CCCC1CNC(=O)c1cc(S(N)(=O)=O)cc(OC)c1OC (stereo not drawn) [VERALIPRIDE],AC50,D(1A) dopamine receptor,> 30 µM
O=C(NCCNCC(O)COc1ccc(O)cc1)N1CCOCC1 (stereo not drawn) [XAMOTEROL],AC50,Histamine H1 receptor [6],> 30 µM
same,AC50,Histamine H1 receptor [7],> 30 µM
